Data from US20200237779A1, “COMBINATION THERAPY WITH A BET INHIBITOR AND A BCL-2 INHIBITOR” (Hoffmann-La Roche Inc., priority 2017, published 2020).

Test system: KMS-12BM MM xenografts
Experiment: In vivo antitumor efficacy against KMS-12BM MM xenografts
Parameters: species or system CIEA NOG mice
Conditions: D14-25; for Antitumor efficacy (result in words): KMS-12BM xenografts, RG6146 30 mg/kg ip, venetoclax 100 mg/kg po, single agent or combination; for Tumor Regression (%) / npTCR and CI (non-parametric Treatment to Control Ratio) / TGI % (tumor growth inhibition): s.c. KMS-12BM human MM xenografts in female CIEA NOG mice, RG6146 30 mg/kg ip QD, venetoclax 100 mg/kg po QD, Day 25; for TGI % (tumor growth inhibition): compared to control
Description: The in vivo antitumor efficacy of BET inhibitor RG6146 in combination with Bcl-2 inhibitor venetoclax (GDC-0199) was evaluated against KMS-12BM MM xenografts.
BET inhibitor RG6146 was provided as a powder from Roche, Basel, Switzerland and resuspended prior to use. Bcl-2 inhibitor venetoclax was provided by Genentech, South San Francisco, USA and formulated prior to use.
The original KMS-12BM human Multiple Myeloma cell line (MM) was purchased from ATCC (Manassas, V., USA). Expansion of tumor cells for the transplantation was done by the TAP CompacT CellBase Cell Culture Roboter according to the protocol. Tumor cell line was routinely cultured in RPMI 1640 medium, FCS 10% and L-Glutamin 2 mM at 37° C. in a water-saturated atmosphere at 5% CO2. Culture passage was performed with trypsin/EDTA 1× splitting twice/week and passage 3 used for transplantation.
Female CIEA NOG mice (Taconic), age 5-7 weeks at arrival, maintained under specific-pathogen-free condition with daily cycles of 12 h light/12 h darkness according to committed guidelines. Experimental study protocol was reviewed and approved by local government. After arrival animals were maintained in animal facility for one week to get accustomed to new environment and for observation. Continuous health monitoring was carried out on regular basis. Diet food and autoclaved water were provided ad libitum.
Animals were controlled daily for clinical symptoms and detection of adverse effects. For monitoring throughout the experiment body weight of animals was documented.
Animal treatment started after randomisation when median tumor size was about 170 mm^3. The vehicle was administered ip once daily (QD) on D14-25. BET inhibitor RG6146 ip treatment at 30 mg/kg was done as single agent and in combination on D14-25. Finally, Bcl-2 inhibitor venetoclax was given orally at 100 mg/kg as single agent and in combination on D14-25.
KMS-12BM human MM cells were s.c. inoculated with Matrigel onto female CIEA-NOG mice. Tumor bearing mice were randomized 14 days later to the indicated study groups and compound treatment initiated. Tumor bearing animals were treated with vehicle control, with the BET inhibitor RG6146 at 30 mg/kg or with Bcl-2 inhibitor venetoclax at 100 mg/kg as single agent and in combination thereof.

SMILES | Antitumor efficacy (result in words) | Tumor Regression (%) | npTCR and CI (non-parametric Treatment to Control Ratio) | TGI % (tumor growth inhibition)
CC1(C)CCC(CN2CCN(c3ccc(C(=O)NS(=O)(=O)c4ccc(NCC5CCOCC5)c([N+](=O)[O-])c4)c(Oc4cnc5[nH]ccc5c4)c3)CC2)=C(c2ccc(Cl)cc2)C1 [venetoclax, 4-(4-{[2-(4-chlorophenyl)-4,4-dimethylcyclohex-1-en-1-yl]methyl}piprazin-1-yl)-N-({3-nitro-4-[(tetrahydro-2H-pyran-4-ylmethyl)amino]phenyl}sulfonyl)-2-(1H-pyrrolo[2,3-b]pyridin-5-yloxy)benzamide] | weaker activity | 0% | 0.55 | 49%
Cc1sc2c(c1C)C(c1ccc(Cl)cc1)=N[C@@H](CC(=O)NCCCN1CCN(C)CC1)c1nnc(C)n1-2 [RG6146, 2-[(S)-4-(4-Chloro-phenyl)-2,3,9-trimethyl-6H-1-thia-5,7,8,9a-tetraaza-cyclopenta[e]azulen-6-yl]-N-[3-(4-methyl-piperazin-1-yl)-propyl]-acetamide] | nearly tumor stasis | 0% | 0.06 | 94%
